These results are taken from patent US6479531B1, “Gastrin and cholecystokinin receptor ligands” (James Black Foundation Limited, priority 1998, dated 2002).

The target of test [1] is T1, gastrin receptor (Rattus norvegicus, UniProt P30553).
T1 construct: The stomach was excised and flushed with ca. 1 ml of unbuffered physiological saline solution; from tissue; host or cells: isolated whole stomach of immature rats (ca. 21 days old)
T1 sequence (P30553 1-452): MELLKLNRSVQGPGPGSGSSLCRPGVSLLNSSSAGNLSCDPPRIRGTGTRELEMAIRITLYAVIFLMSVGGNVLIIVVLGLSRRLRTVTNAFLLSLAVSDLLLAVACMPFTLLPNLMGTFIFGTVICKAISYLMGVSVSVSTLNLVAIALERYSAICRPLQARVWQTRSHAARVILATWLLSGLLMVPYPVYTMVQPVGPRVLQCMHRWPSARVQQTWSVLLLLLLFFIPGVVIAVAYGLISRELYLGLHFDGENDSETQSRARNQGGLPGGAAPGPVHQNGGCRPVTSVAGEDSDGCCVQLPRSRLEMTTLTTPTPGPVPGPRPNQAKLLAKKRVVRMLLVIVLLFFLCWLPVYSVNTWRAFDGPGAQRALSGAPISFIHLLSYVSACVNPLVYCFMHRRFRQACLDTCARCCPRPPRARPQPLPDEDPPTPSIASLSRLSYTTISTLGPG
The test is described as follows: gastrin antagonist activity in immature rat stomach assay (pentagastrin dose-response, acid secretion). The note with it: isolated immature rat stomach, cumulative pentagastrin dose-response curves, read-out: Gastrin pKb (converted). The method in brief: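 Gastrin antagonism was measured as the effect on cumulative pentagastrin dose-response curves of acid output, recorded by pH electrode in the perfusate of an excised immature rat stomach (ca. 21 days old). Test compound was placed in the serosal bath (37°, 3×10^−8 M 5-methylfurmethide) 60 min before pentagastrin.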

Test [2] has as its target T2, CCKB receptor (Mus musculus, UniProt P56481).
T2 construct: The whole brains from male mice (CD1 22-25 g; Charles River) were removed; from tissue; host or cells: cerebral cortex membranes of male CD1 mice
T2 sequence (P56481 1-453): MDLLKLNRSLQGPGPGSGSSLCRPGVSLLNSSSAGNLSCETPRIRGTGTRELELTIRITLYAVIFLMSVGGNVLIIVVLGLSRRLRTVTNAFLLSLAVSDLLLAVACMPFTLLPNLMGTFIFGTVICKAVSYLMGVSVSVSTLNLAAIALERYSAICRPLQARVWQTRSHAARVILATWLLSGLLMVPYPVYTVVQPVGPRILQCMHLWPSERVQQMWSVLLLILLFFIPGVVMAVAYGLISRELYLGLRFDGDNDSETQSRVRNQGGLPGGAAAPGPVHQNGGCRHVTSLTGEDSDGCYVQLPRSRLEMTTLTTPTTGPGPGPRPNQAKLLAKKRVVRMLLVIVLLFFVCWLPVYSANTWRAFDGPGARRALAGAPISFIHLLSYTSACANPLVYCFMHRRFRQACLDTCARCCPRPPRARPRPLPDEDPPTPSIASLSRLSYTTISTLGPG
The test is described as follows: CCKB receptor radioligand binding assay in mouse cortical membranes. The note with it: [125I]-CCK8(S) 200 pM, 150 min at 21±3°, read-out: CCKB pKi (converted). In outline:
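Bound radioactivity was gamma-counted after rapid GF/B filtration and cold 50 mM Tris-HCl (pH 7.4) washes. The tissue was cerebral cortex from male CD1 mice, prepared as twice-centrifuged membranes in pH 7.2 HEPES/NaCl/KCl/MgCl2/EDTA buffer with bacitracin at 20 mg/ml original wet weight.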

The structures appear in SMILES notation.

Consider `O=C(O)c1cccc(NC(=O)c2nc(C3CCCO3)[nH]c2CCC23CC4CC(CC(C4)C2)C3)c1` (stereo not shown) [Example 186, 3-{[5-(2-Adamantan-1-yl-ethyl)-2-(tetrahydro-furan-2-yl)-1H-imidazole-4-carbonyl]-amino}-benzoic Acid], for which the Kb in test [1] was 11 nM. For the same molecule, the Ki in test [2] was 155 nM.
As to `O=C(O)c1cccc(NC(=O)c2nc(-c3ccccc3)[nH]c2CC2CCCCCC2)c1` [Example 26, 3-[(5-Cycloheptylmethyl-2-phenyl-1H-imidazole-4-carbonyl)-amino]-benzoic Acid], the Kb in test [1] was 407 nM. Besides, the Ki in test [2] was 1480 nM.
For the molecule `Cc1nc(C(=O)Nc2cccc(C(=O)O)c2)c(CCC23CC4CC(CC(C4)C2)C3)[nH]1` [Example 108, 3-{[5-(2-Adamantan-1-yl-ethyl)-2-methyl-1H-imidazole-4-carbonyl]-amino}-benzoic Acid], the Kb in test [1] was 1550 nM. Moreover, in test [2], the Ki was 2340 nM.
Take `O=C(O)c1cccc(NC(=O)c2cc(-c3ccccc3)[nH]c2CC2CCCCCC2)c1` [Example 12, 3-[(2-Cycloheptylmethyl-5-phenyl-1H-pyrrole-3-carbonyl)-amino]-benzoic Acid]: the Kb in test [1] was 1000 nM. The Ki in test [2] is 1120 nM.
With `O=C(O)c1cccc(NC(=O)c2nc(-c3ccco3)[nH]c2CCC23CC4CC(CC(C4)C2)C3)c1` [Example 185, 3-{[5-(2-Adamantan-1-yl-ethyl)-2-furan-2-yl-1H-imidazole-4-carbonyl]-amino}benzoic Acid], the Kb in test [1] is 155 nM. Further, in test [2], the Ki was 457 nM.
Turning to `O=C(O)c1cccc(NC(=O)c2nc(CC34CC5CC(CC(C5)C3)C4)[nH]c2CCc2ccccc2)c1` [Example 86, 3-[(2-Adamantan-1-ylmethyl-5-phenethyl-1H-imidazole-4-carbonyl)-amino]-benzoic Acid], the Kb in test [1] is 741 nM. In addition, the Ki in test [2] is 1020 nM.
In the case of `Cc1ccccc1-c1nc(C(=O)Nc2cccc(C(=O)O)c2)c(CCC23CC4CC(CC(C4)C2)C3)n1C` [Example 73, 3-{[5-(2-Adamantan-1-yl-ethyl)-1-methyl-2-o-tolyl-1H-imidazole-4-carbonyl]-amino}-benzoic Acid], the Kb in test [1] is 6.61 nM. Also, the Ki in test [2] was 417 nM.
Regarding `Cc1ccccc1-c1nc(C(=O)Nc2cccc(C(=O)O)c2)c(CC2CCCCCC2)[nH]1` [Example 165, 3-[(5-Cycloheptylmethyl-2-o-tolyl-1H-imidazole-4-carbonyl)-amino]-benzoic Acid], the Kb in test [1] was 123 nM. The Ki in test [2] is 1820 nM.
In the case of `Cc1ccc(NC(=O)c2nc(-c3ccccc3C)[nH]c2CCC2CCCCC2)cc1C(=O)O` [Example 169, 5-{[5-(2-Cyclohexyl-ethyl)-2-o-tolyl-1H-imidazole-4-carbonyl]-amino}-2-methyl-benzoic Acid], the Kb in test [1] was 75.9 nM. The Ki in test [2] was 132 nM.
As for `O=C(O)c1cccc(NC(=O)c2nc(-c3cccc(F)c3)[nH]c2CCC23CC4CC(CC(C4)C2)C3)c1` [Example 55, 3-{[5-(2-Adamantan-1-yl-ethyl)-2-(3-fluoro-phenyl)-1H-imidazole-4-carbonyl]-amino}-benzoic Acid], the Kb in test [1] was 229 nM. Also, the Ki in test [2] is 646 nM.
Consider `O=C(O)c1cccc(NC(=O)c2nc(-c3cccc(O)c3)[nH]c2CCC23CC4CC(CC(C4)C2)C3)c1` [Example 62, 3-{[5-(2-Adamantan-1-yl-ethyl)-2-(3-hydroxy-phenyl)-1H-imidazole-4-carbonyl]-amino}-benzoic Acid], for which the Kb in test [1] was 1200 nM. For the same molecule, in test [2], the Ki is 389 nM.
On to `O=C(O)c1cc(NC(=O)c2cc(-c3ccc4ccccc4c3)[nH]c2CC2CCCCCC2)cc(C(=O)O)c1` [Example 11, 5-[(2-Cycloheptylmethyl-5-naphthalene-2-yl-1H-pyrrole-3-carbonyl)-amino]-isophthalic Acid], for which, in test [1], the Kb is 1620 nM. In test [2], the Ki was 87.1 nM.
As for `O=C(O)c1cccc(NC(=O)c2nc(-c3ccccc3Br)[nH]c2CCC23CC4CC(CC(C4)C2)C3)c1` [Example 59, 3-{[5-(2-Adamantan-1-yl-ethyl)-2-(2-bromo-phenyl)-1H-imidazole-4-carbonyl]-amino}-benzoic Acid], in test [1], the Kb was 57.5 nM. In test [2], the Ki was 251 nM.
For the molecule `O=C(O)c1cccc(NC(=O)c2nc([C@@H]3CCCN3)[nH]c2CCC23CC4CC(CC(C4)C2)C3)c1` [Example 136, (S)-3-{[5-(2-Adamantan-1-yl-ethyl)-2-pyrrolidin-2-yl-1H-imidazole-4-carbonyl]-amino}-benzoic Acid], in test [1], the Kb was 148 nM. Besides, the Ki in test [2] is 4170 nM.
Consider `O=C(O)Cc1cccc(NC(=O)c2nc(C3CCCCC3)[nH]c2CCC23CC4CC(CC(C4)C2)C3)c1` [Example 84, (3-{[5-(2-Adamantan-1-yl-ethyl)-2-cyclohexyl-1H-imidazole-4-carbonyl]-amino}-phenyl)-acetic Acid], for which the Kb in test [1] was 162 nM. Further, the Ki in test [2] was 1.02 nM.
On the same counts, the results for `O=C(O)c1cccc(NC(=O)c2nc(C3CCCCC3)[nH]c2CCC2C3CC4CC(C3)CC2C4)c1` (stereo not shown) [Example 172, 3-{[5-(2-Adamantan-2-yl-ethyl)-2-cyclohexyl-1H-imidazole-4-carbonyl]-amino}-benzoic Acid] are 3.72 nM and 21.4 nM.
Consider `O=C(O)c1cc(NC(=O)c2[nH]c(-c3ccccc3)nc2CC23CC4CC(CC(C4)C2)C3)cc(C(=O)O)c1` [Example 37, 5-[(5-Adamantan-1-ylmethyl-2-phenyl-1H-imidazole-4-carbonyl)-amino]-isophthalic Acid], for which, in test [1], the Kb was 1260 nM. Further, in test [2], the Ki is 209 nM.
Regarding `Cc1ccccc1-c1nc(C(=O)Nc2cccc(C(=O)O)c2C)c(CCC23CC4CC(CC(C4)C2)C3)[nH]1` [Example 104, 3-{[5-(2-Adamantan-1-yl-ethyl)-2-o-tolyl-1H-imidazole-4-carbonyl]-amino}-2-methyl-benzoic Acid], in test [1], the Kb is 42.7 nM. Besides, the Ki in test [2] was 129 nM.
As to `Cc1ccccc1-c1nc(NC(=O)c2cccc(C(=O)O)c2)c(CCC23CC4CC(CC(C4)C2)C3)[nH]1` [Example 92, N-[5-(2-Adamantan-1-yl-ethyl)-2-o-tolyl-1H-imidazol-4-yl]-isophthalamic Acid], the Kb in test [1] is 158 nM. Also, the Ki in test [2] was 1020 nM.
For the molecule `CN1CCC[C@H]1c1nc(C(=O)Nc2cccc(C(=O)O)c2)c(CCC23CC4CC(CC(C4)C2)C3)[nH]1` [Example 137, (S)-3-{[5-(2-Adamantan-1-yl-ethyl)-2-(1-methyl-pyrrolidin-2-yl)-1H-imidazole-4-carbonyl]-amino}-benzoic Acid], in test [1], the Kb was 5.13 nM. Further, the Ki in test [2] was 324 nM.
With `Cc1ccccc1-c1nc(C(=O)NCC(=O)Nc2cccc(C(=O)O)c2)c(CCC23CC4CC(CC(C4)C2)C3)[nH]1` [Example 103], in test [1], the Kb was 661 nM. Besides, in test [2], the Ki is 263 nM.
In the case of `CC(C)(C)Cc1nc(C(=O)Nc2cccc(C(=O)O)c2)c(CCC23CC4CC(CC(C4)C2)C3)[nH]1` [Example 111, 3-{[5-(2-Adamantan-1-yl-ethyl)-2-(2,2-dimethyl-propyl)-1H-imidazole-4-carbonyl]-amino}-benzoic Acid], the Kb in test [1] is 41.7 nM. The Ki in test [2] was 91.2 nM.
For the molecule `CCCc1nc(C(=O)Nc2cccc(C(=O)O)c2)c(CCC23CC4CC(CC(C4)C2)C3)[nH]1` [Example 81, 3-{[5-(2-Adamantan-1-yl-ethyl)-2-propyl-1H-imidazole-4-carbonyl]-amino}-benzoic Acid], the Kb in test [1] is 52.5 nM. Further, in test [2], the Ki was 269 nM.
